{"source": "patent US8808749B2", "about": "“Polymer conjugate of bioactive substance having hydroxy group” (priority 2009, dated 2014)", "key": {"[1]": {"system": "Mouse colon cancer, Colon 26", "assay": "Antitumor activity test for combretastatin A4 conjugate", "format": "in vivo", "details": "for relative tumor volume based on non-treatment group: 200 mg/kg in terms of combretastatin A4, once into tail vein", "excerpt": "Mouse colon cancer, Colon 26, maintained by serial subcutaneous subculture in mice, was minced into about 2-mm cubic fragments, and the fragments were subcutaneously transplanted on the dorsal part of female CDF1 mice with a trocar. Eight days after the tumor transplantation, the polymer conjugate according to the invention (Compound 22) or a control drug (combretastatin A4 phosphate ester; CA4P, PEG-Glu-CA4 or PEG-Asp-CA4) was each administered once into the mouse tail vein in a way such that each mouse received the same dose per body weight in terms of combretastatin A4. Each compound was dissolved in a 5% aqueous glucose solution and used.\nAfter the administration, the major axis (L mm) and the minor axis (W mm) of the tumor were measured using a caliper, and the tumor volume was calculated by the formula (L×W^2)/2."}, "[2]": {"system": "heart muscle", "assay": "Effect of combretastatin A4 conjugate on heart muscle (plasma CPK)", "format": "in vivo, mouse", "details": "for creatinine phosphokinase (CPK) in plasma, average: 200 mg/kg once into tail vein", "excerpt": "Combretastatins are known to have a side effect of causing a myocardial damage. As such, by following a change in efficacy of creatinine phosphokinase (CPK) that is released into blood when enzymes abundantly present in heart muscles or neurons are damaged, the degree of side effect of the compounds according to the invention was compared to those of known compounds.\nTo a non-treated female CDF1 mouse, Compound 22 as a compound of the invention and CA4P, PEG-Glu-CA4, and PEG-Asp-CA4 as a comparative compound were each administered once into the mouse tail vein. Six hours and 24 hours after the administration, three animals per each group were anesthetized with ether and blood was taken from abdominal aorta. Creatinine phosphokinase (CPK) contained in plasma was measured."}, "[3]": {"system": "Mouse colon cancer, Colon 26", "assay": "Antitumor activity test for docetaxel conjugate", "format": "in vivo", "details": "100 mg/kg in terms of docetaxel, once into tail vein", "excerpt": "Mouse colon cancer, Colon 26, maintained by serial subcutaneous subculture in mice, was minced into about 2-mm cubic fragments, and the fragments were subcutaneously transplanted on the dorsal part of female CDF1 mice with a trocar. Eight days after the tumor transplantation, the polymer conjugate according to the invention (Compound 30) or a control drug (docetaxel; DTX or PEG-Asp-DTX) was each administered once into the mouse tail vein in a way such that each mouse received the same dose per body weight in terms of docetaxel. Docetaxel was dissolved in anhydrous ethanol and cremophor (manufactured by Sigma Corporation), and diluted with physiological saline at the time of use. Other compounds were dissolved in a 5% aqueous glucose solution for injection and used. After the administration, the major axis (L mm) and the minor axis (W mm) of the tumor were measured using a caliper, and the tumor volume was calculated by the formula (L×W^2)/2."}}, "data": [{"compound": "COc1ccc(/C=C\\c2cc(OC)c(OC)c(OC)c2)cc1OP(=O)(O)O", "note": "[CA4P, combretastatin A4 phosphate ester]", "values": [{"measurement": "relative tumor volume based on non-treatment group", "setting": "[1]; day 0 after administration", "result": 1.00}, {"measurement": "relative tumor volume based on non-treatment group", "setting": "[1]; day 2 after administration", "result": 0.72}, {"measurement": "relative tumor volume based on non-treatment group", "setting": "[1]; day 4 after administration", "result": 0.82}, {"measurement": "relative tumor volume based on non-treatment group", "setting": "[1]; day 6 after administration", "result": 0.80}, {"measurement": "relative tumor volume based on non-treatment group", "setting": "[1]; day 8 after administration", "result": 0.80}, {"measurement": "antitumor activity (in words)", "setting": "[1]; dose of 200 mg/kg", "result": "weak antitumor activity"}, {"measurement": "creatinine phosphokinase (CPK) in plasma, average", "setting": "[2]; 6 hours after administration", "result": "400-500 IU/L"}, {"measurement": "creatinine phosphokinase (CPK) in plasma, average", "setting": "[2]; 24 hours after administration", "result": "≦200 IU/L"}, {"measurement": "CPK change (in words)", "setting": "[2]; dose of 200 mg/kg", "result": "CPK increase was significant"}]}, {"compound": "docetaxel [DTX]", "values": [{"measurement": "relative tumor volume based on non-treatment group", "setting": "[3]; day 0 after administration", "result": 1.00}, {"measurement": "relative tumor volume based on non-treatment group", "setting": "[3]; day 3 after administration", "result": 0.50}, {"measurement": "relative tumor volume based on non-treatment group", "setting": "[3]; day 5 after administration", "result": 0.32}, {"measurement": "relative tumor volume based on non-treatment group", "setting": "[3]; day 9 after administration", "result": 0.37}, {"measurement": "relative tumor volume based on non-treatment group", "setting": "[3]; day 12 after administration", "result": 0.35}]}]}
